How the values were obtained:
Experiment in all cases: relative viability (nuclei count vs DMSO), 5 days (fraction); higher = more cells survive
[1] = compound: CCOC(=O)CCNc1cc(N2CCc3ccccc3CC2)nc(-c2ccccn2)n1 [GSK-J4] + C[C@@H](Oc1cc(-c2cnn(C3CCNCC3)c2)cnc1N)c1c(Cl)ccc(F)c1Cl [Crizotinib] (partner 1 µM)
Procedure, shortened: (§1)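 Values are medians from duplicate plates. Each reflects relative viability, defined as the nuclei count of treated wells over that of vehicle wells. Lung cancer cell lines in 1536-well plates were pin-tool dosed one day after seeding with one drug alone or with a fixed anchor-drug dose plus five library-drug doses (not always all listed) in √10 steps, then fixed, stained and imaged at 4× after 5 days.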

[2] = compound: CN1CCC(CC1)OC2=CC(=C(C=C2)NC3=NC=C4C(=N3)N(C(=O)N4C)C5CCCC5)OC [AZ3146] + Cc1cc(Nc2cc(N3CCN(C)CC3)nc(Sc3ccc(NC(=O)C4CC4)cc3)n2)n[nH]1 [Tozasertib] (partner 0.1 µM)
Procedure, shortened: as §1

[3] = compound: CN1CCC(CC1)OC2=CC(=C(C=C2)NC3=NC=C4C(=N3)N(C(=O)N4C)C5CCCC5)OC [AZ3146] + O=C(CCCCCCC(=O)Nc1ccccc1)NO [Vorinostat] (partner 1 µM)
Procedure, shortened: as §1

[4] = compound: CCOC(=O)CCNc1cc(N2CCc3ccccc3CC2)nc(-c2ccccn2)n1 [GSK-J4] + Nc1ncn([C@H]2C[C@H](O)[C@@H](CO)O2)c(=O)n1 [Decitabine] (partner 2 µM)
Procedure, shortened: as §1

NCI-H727
relative viability ([1]; first compound 0.5 µM): 0.782
relative viability ([1]; first compound 5 µM): 1.01
relative viability ([1]; first compound 15.81 µM): 0.771
relative viability ([1]; first compound 50 µM): 0.443
relative viability ([2]; first compound 0.08 µM): 0.546
relative viability ([2]; first compound 0.253 µM): 0.495
relative viability ([2]; first compound 0.8 µM): 0.455
relative viability ([2]; first compound 2.53 µM): 0.575
relative viability ([2]; first compound 8 µM): 0.439
relative viability ([3]; first compound 0.08 µM): 1.01
relative viability ([3]; first compound 0.253 µM): 1.22
relative viability ([3]; first compound 0.8 µM): 1.03
relative viability ([3]; first compound 2.53 µM): 1.17
relative viability ([3]; first compound 8 µM): 1.11
relative viability ([4]; first compound 0.5 µM): 0.856
relative viability ([4]; first compound 1.581 µM): 0.753
relative viability ([4]; first compound 5 µM): 0.904
relative viability ([4]; first compound 15.81 µM): 0.87
relative viability ([4]; first compound 50 µM): 0.611

NCI-H838
relative viability ([1]; first compound 0.5 µM): 0.85
relative viability ([1]; first compound 1.581 µM): 0.845
relative viability ([1]; first compound 15.81 µM): 0.816
relative viability ([1]; first compound 50 µM): 0.752
relative viability ([2]; first compound 0.08 µM): 0.249
relative viability ([2]; first compound 0.253 µM): 0.252
relative viability ([2]; first compound 0.8 µM): 0.254
relative viability ([2]; first compound 2.53 µM): 0.263
relative viability ([2]; first compound 8 µM): 0.183
relative viability ([3]; first compound 0.08 µM): 0.67
relative viability ([3]; first compound 0.253 µM): 0.756
relative viability ([3]; first compound 0.8 µM): 0.69
relative viability ([3]; first compound 2.53 µM): 0.589
relative viability ([3]; first compound 8 µM): 0.308
relative viability ([4]; first compound 0.5 µM): 0.459
relative viability ([4]; first compound 1.581 µM): 0.363
relative viability ([4]; first compound 5 µM): 0.407
relative viability ([4]; first compound 15.81 µM): 0.406
relative viability ([4]; first compound 50 µM): 0.316

NCI-H1355
relative viability ([1]; first compound 0.5 µM): 1.06
relative viability ([1]; first compound 1.581 µM): 0.962
relative viability ([1]; first compound 5 µM): 1.22
relative viability ([1]; first compound 15.81 µM): 1.02
relative viability ([1]; first compound 50 µM): 1.04
relative viability ([2]; first compound 0.08 µM): 0.371
relative viability ([2]; first compound 0.253 µM): 0.573
relative viability ([2]; first compound 0.8 µM): 0.485
relative viability ([2]; first compound 2.53 µM): 0.404
relative viability ([2]; first compound 8 µM): 0.359
relative viability ([3]; first compound 0.08 µM): 0.517
relative viability ([3]; first compound 0.253 µM): 0.619
relative viability ([3]; first compound 0.8 µM): 0.69
relative viability ([3]; first compound 2.53 µM): 0.712
relative viability ([3]; first compound 8 µM): 0.622
relative viability ([4]; first compound 0.5 µM): 0.354
relative viability ([4]; first compound 1.581 µM): 0.364
relative viability ([4]; first compound 5 µM): 0.342
relative viability ([4]; first compound 15.81 µM): 0.325
relative viability ([4]; first compound 50 µM): 0.335

HARA
relative viability ([1]; first compound 0.5 µM): 0.975
relative viability ([1]; first compound 1.581 µM): 0.962
relative viability ([1]; first compound 15.81 µM): 0.942
relative viability ([1]; first compound 50 µM): 0.662
relative viability ([2]; first compound 0.08 µM): 0.115
relative viability ([2]; first compound 0.253 µM): 0.15
relative viability ([2]; first compound 0.8 µM): 0.0956
relative viability ([2]; first compound 2.53 µM): 0.0781
relative viability ([2]; first compound 8 µM): 0.0801
relative viability ([3]; first compound 0.08 µM): 0.495
relative viability ([3]; first compound 0.253 µM): 0.561
relative viability ([3]; first compound 0.8 µM): 0.559
relative viability ([3]; first compound 2.53 µM): 0.67
relative viability ([3]; first compound 8 µM): 0.423
relative viability ([4]; first compound 0.5 µM): 0.506
relative viability ([4]; first compound 1.581 µM): 0.49
relative viability ([4]; first compound 15.81 µM): 0.506
relative viability ([4]; first compound 50 µM): 0.369

201T
relative viability ([1]; first compound 0.5 µM): 1.01
relative viability ([1]; first compound 1.581 µM): 1.07
relative viability ([1]; first compound 5 µM): 1.01
relative viability ([1]; first compound 15.81 µM): 1.02
relative viability ([1]; first compound 50 µM): 0.996
relative viability ([2]; first compound 0.08 µM): 0.612
relative viability ([2]; first compound 0.253 µM): 0.858
relative viability ([2]; first compound 0.8 µM): 0.837
relative viability ([2]; first compound 2.53 µM): 0.651
relative viability ([2]; first compound 8 µM): 0.473
relative viability ([3]; first compound 0.08 µM): 0.948
relative viability ([3]; first compound 0.253 µM): 0.928
relative viability ([3]; first compound 0.8 µM): 0.917
relative viability ([3]; first compound 2.53 µM): 1.05
relative viability ([3]; first compound 8 µM): 0.894
relative viability ([4]; first compound 0.5 µM): 0.826
relative viability ([4]; first compound 1.581 µM): 0.886
relative viability ([4]; first compound 5 µM): 0.847
relative viability ([4]; first compound 15.81 µM): 0.831
relative viability ([4]; first compound 50 µM): 0.875

NCI-H23
relative viability ([1]; first compound 0.5 µM): 0.553
relative viability ([1]; first compound 5 µM): 0.456
relative viability ([1]; first compound 15.81 µM): 0.413
relative viability ([1]; first compound 50 µM): 0.422
relative viability ([2]; first compound 0.08 µM): 0.315
relative viability ([2]; first compound 0.253 µM): 0.338
relative viability ([2]; first compound 0.8 µM): 0.362
relative viability ([2]; first compound 2.53 µM): 0.301
relative viability ([2]; first compound 8 µM): 0.338
relative viability ([3]; first compound 0.08 µM): 0.473
relative viability ([3]; first compound 0.253 µM): 0.593
relative viability ([3]; first compound 0.8 µM): 0.572
relative viability ([3]; first compound 2.53 µM): 0.769
relative viability ([3]; first compound 8 µM): 0.377
relative viability ([4]; first compound 0.5 µM): 0.261
relative viability ([4]; first compound 1.581 µM): 0.271
relative viability ([4]; first compound 5 µM): 0.303
relative viability ([4]; first compound 15.81 µM): 0.279
relative viability ([4]; first compound 50 µM): 0.282

From the supplement of paper PMC10307832
